Assay results: patent US20220030866A1, “CONJUGATES OF AUXIN ANALOGS” (The State of Israel, Ministry of Agriculture & Rural …, priority 2019, published 2022)

What was measured:
Format in all cases: in vivo
[1] = tested on: cuttings from mature Eucalyptus grandis trees; assay: rooting of cuttings from mature Eucalyptus grandis trees; settings: for rooting percentage of eucalyptus cuttings: Example 12: 6000 ppm IBA potassium salt and 50 μM conjugate dip 1 minute, leaves sprayed with 50 μM; for rooting compared with Compound 1a (4-CPA-ethanolamine), in words: 100 μM, submerging and/or spraying, with or without 6000 ppm IBA
Procedure: Eight-year-old Eucalyptus grandis plants were grown from seeds and placed in a net house in 20 liter pots containing peat and tuff (70:30, v/v), drip irrigated and fertilized with 3 liters of Shefer™ 737 liquid fertilizer (ICL Fertilizers, Israel) per cubic meter of water. Cuttings were collected from branches which grew 2-2.5 meters above the ground. Cuttings were 2-3 mm thick branches, 15 cm long, with 1-2 pairs of leaves. The leaf blades were cut in half to decrease transpiration. Cuttings were treated with 6000 ppm IBA (potassium indole-3-butyric acid) for 1 minute with or without 100 μM of each tested compound. The tested compounds were either applied to the base of the cutting, with or without IBA and/or sprayed on the foliage in the presence of 0.05% Triton™ X-100 surfactant. Cuttings were rooted in rooting tables heated to 25° C. under constant 90% humidity, in a controlled-climate greenhouse. The rooting medium contained crushed polystyrene foam: vermiculite no. 3: pit (3:2:1, v/v/v). Rooting was recorded after 30-60 days. Roots system architecture was analyzed by WinRHIZO™ system scanner and software.
Exemplary conjugates prepared as described in Example 1 were tested for their ability to promote adventitious root (AR) formation in cuttings from mature eucalyptus (Eucalyptus grandis) trees. In this model, AR formation is difficult to induce, with 5-15% root development in the presence of IBA potassium salt [Abu-Abied et al., Plant J 2012, 71:787-799], such that effective AR formation indicates a potent root formation activity.
Various concentrations and mode of applications were tested for each compound in the presence or absence of IBA (the “gold standard” rooting enhancer). A concentration of 100 μM of each conjugate was used for an initial screen of 37 conjugates, in which the compounds were applied to the base of the cutting by dipping (submerging the cutting base in a solution of the conjugate for one minute) or to the foliage by spraying. After 45 days, the cuttings were scored for the presence of callus or roots.
Conjugates prepared as described herein were evaluated in a Eucalyptus grandis rooting model, according to procedures such as described hereinabove. The bases of cuttings (a 12-15 cm long branch with the two upper leaves, whose blades were cut in half) were dipped in a solution containing 6000 ppm IBA potassium salt and 50 μM of conjugate for 1 minute, and the leaves were sprayed with 50 μM of the same conjugate (mixed with 0.5% Triton™ X-100 surfactant). The cuttings were imbedded in a heated (25° C.) rooting table containing a 1:2:3 ratio of peat:vermiculite:polystyrene, under 90% relative humidity.

mung bean cuttings = assay: rooting of mung bean cuttings (number of adventitious roots per cutting); settings: for effect on AR formation in mung bean cuttings, in words: tested at 2, 10 or 50 μM
Procedure: Mung bean cuttings have been used for many years as a model for assessing the effect of plant hormones and synthetic chemicals on the rooting process. In the present study, this system was used to ascertain activity of conjugates in inducing adventitious root (AR) formation, and to evaluate the rate of conjugate hydrolysis that releases the free active auxin. […] The rooting activity in this system is determined by the number of adventitious roots per cutting.
The mung bean model was used to examine the activity of conjugates of three phenoxy acids, 4-CPA, MCPA, and 2-DP, on rooting. For comparison, plants were treated with (unconjugated) IBA or with 2-DP conjugated to glycine methyl ester (Gly-ME).

[2] = tested on: avocado rootstock cuttings; assay: rooting of avocado rootstock cuttings; settings: vc51 rootstock, IBA with compound; for rooting success rate of green avocado branches, in words: compared with IBA alone
Description: Avocado rootstock is extremely difficult to root. Currently, the common technique for propagating clones of avocado rootstock is to graft the desired rootstock on a seedling, and transfer to the dark to generate an etiolated branch. This branch can be rooted and grafted with the desired variety while still grafted on the seed [Frolich & Platt, California Avocado Society 1971-72 Yearbook 1972, 55:97-109]. However, the preparation of such twice-grafted seedlings is time-consuming and expensive.
The ability of exemplary conjugates to promote rooting in green avocado cuttings (in the presence of IBA) was therefore examined. In particular, Compounds 2h (MCPA-methanol), 4b (NAA-β-alanine methyl ester), 3g (2-DP-methyl-4-aminobenzoate), 3f (2-DP-p-toluidine), 1l (4-CPA-morpholine) and is (4-CPA-D-Trp) were tested.
Exemplary conjugates were also tested for rooting the hard-to-root species of avocado (VC801 rootstock) and argan, according to procedures described hereinabove.

Arabidopsis seedlings = assay: root elongation inhibition in Arabidopsis seedlings; settings: 50 nM, after 5 days
Procedure: Adventitious roots (ARs) were induced in intact plants, using previously described procedures [Gutierrez et al., Plant Cell 2009, 21:3119-3132; Abu-Abied et al., Plant J 2012, 71:787-799; Rasmussen et al., Plant Physiol 2012, 158:1976-1987]. Briefly, seeds were germinated on MS/0.8% agar plates supplemented with 3% sucrose. The plates were kept in the dark for 2 days at 4° C., then 5 days at 22° C. in the dark, 2 days in the light, 3 days in the dark and then additional 4 days in the light to complete 2 weeks when roots were counted using a stereoscope. Sensitivity to auxin and/or auxin analogs was determined by following root elongation on vertical plates. The 4-day-old seedlings were transferred to MS plates containing 0.05 or 0.5 μM IAA and the root length was measured after 5 days, including the number of LRs in each root and calculation of the LR density. Each treatment experiment included 10-15 plants and was repeated 3 times.
A common technique for evaluating auxin activity is by determining the ability of a compound to inhibit root elongation [Zolman et al., Genetics 2000, 156:1323-1337]. In order to use this assay for comparing auxin activities of different conjugates, the minimum concentration of free 4-CPA that is active in the root elongation inhibition assay was determined. Four days old seedlings were placed in vertical plates containing increasing concentrations of 4-CPA. The root lengths were marked daily during 5 days.
Based on the above results, the effect of conjugates of 4-CPA (Compounds 1o-1t) on root elongation after 5 days was determined at concentrations of 50 nM.

[3] = Table 1, 50 μM, water control 29.6
[4] = Table 1, 10 μM, water control 29.6

COC(=O)[C@@H](CC(C)C)NC(=O)COc1ccc(Cl)cc1 [4-CPA-D-Leu-methyl ester]
rooting percentage of eucalyptus cuttings [1]: 5%

COC(=O)[C@H]1CCCN1C(=O)COc1ccc(Cl)cc1 [4-CPA-D-Pro-methyl ester]
rooting percentage of eucalyptus cuttings [1]: 10%

Cc1ccc(NC(=O)COc2ccc(Cl)cc2)nc1 [Compound 1c]
rooting of mung bean cuttings (number of roots per cutting) (mung bean cuttings; [3]): 0

COC(=O)c1ccnc(NC(=O)COc2ccc(Cl)cc2)c1 [Compound 1d]
rooting of mung bean cuttings (number of roots per cutting) (mung bean cuttings; [4]): 0 | rooting of mung bean cuttings (number of roots per cutting) (mung bean cuttings; [3]): 0

Cc1ccccc1NC(=O)COc1ccc(Cl)cc1 [Compound 1e]
rooting of mung bean cuttings (number of roots per cutting) (mung bean cuttings; [3]): 0

CCC(C)NC(=O)COc1ccc(Cl)cc1 (stereo not drawn) [Compound 1i]
rooting of mung bean cuttings (number of roots per cutting) (mung bean cuttings; Table 2, 2 μM): 23 | rooting of mung bean cuttings (number of roots per cutting) (mung bean cuttings; Table 2, 10 μM): 25 | rooting of mung bean cuttings (number of roots per cutting) (mung bean cuttings; Table 2, 50 μM): 0 | rooting compared with Compound 1a (4-CPA-ethanolamine), in words [1]: not more effective at inducing rooting

CCCCNC(=O)COc1ccc(Cl)cc1 [Compound 1j]
rooting of mung bean cuttings (number of roots per cutting) (mung bean cuttings; Table 2, 2 μM): 22 | rooting of mung bean cuttings (number of roots per cutting) (mung bean cuttings; Table 2, 10 μM): 0 | rooting of mung bean cuttings (number of roots per cutting) (mung bean cuttings; Table 2, 50 μM): 0 | rooting compared with Compound 1a (4-CPA-ethanolamine), in words [1]: not more effective at inducing rooting

O=C(COc1ccc(Cl)cc1)N1CCCCC1 [Compound 1k]
rooting of mung bean cuttings (number of roots per cutting) (mung bean cuttings; Table 2, 2 μM): 25 | rooting of mung bean cuttings (number of roots per cutting) (mung bean cuttings; Table 2, 10 μM): 34 | rooting of mung bean cuttings (number of roots per cutting) (mung bean cuttings; Table 2, 50 μM): 0 | rooting compared with Compound 1a (4-CPA-ethanolamine), in words [1]: not more effective at inducing rooting

O=C(COc1ccc(Cl)cc1)N1CCOCC1 [Compound 1l, 4-CPA-morpholine]
rooting of mung bean cuttings (number of roots per cutting) (mung bean cuttings; Table 2, 2 μM): 23 | rooting of mung bean cuttings (number of roots per cutting) (mung bean cuttings; Table 2, 10 μM): 0 | rooting of mung bean cuttings (number of roots per cutting) (mung bean cuttings; Table 2, 50 μM): 0 | roots per cutting of green avocado branches compared with etiolated branches treated with IBA, in words [2]: considerably more roots per cutting | rooting success rate of green avocado branches, in words [2]: considerably enhanced the rooting success rate | rooting compared with Compound 1a (4-CPA-ethanolamine), in words [1]: not more effective at inducing rooting

O=C(COc1ccc(Cl)cc1)N(CCO)CCO [Compound 1m]
rooting compared with Compound 1a (4-CPA-ethanolamine), in words [1]: not more effective at inducing rooting

CN(CCO)C(=O)COc1ccc(Cl)cc1 [Compound 1n]
rooting of mung bean cuttings (number of roots per cutting) (mung bean cuttings; Table 2, 2 μM): 16 | rooting of mung bean cuttings (number of roots per cutting) (mung bean cuttings; Table 2, 10 μM): 24 | rooting of mung bean cuttings (number of roots per cutting) (mung bean cuttings; Table 2, 50 μM): 35 | effect on AR formation in mung bean cuttings, in words (mung bean cuttings): moderate rooting activity at 50 μM | rooting compared with Compound 1a (4-CPA-ethanolamine), in words [1]: not more effective at inducing rooting

COC(=O)C[C@@H](NC(=O)COc1ccc(Cl)cc1)C(=O)OC [Compound 1q, 4-CPA-D-Asp-methyl diester]
rooting of mung bean cuttings (number of roots per cutting) (mung bean cuttings; Table 2, 2 μM): 67 | rooting of mung bean cuttings (number of roots per cutting) (mung bean cuttings; Table 2, 10 μM): 0 | rooting of mung bean cuttings (number of roots per cutting) (mung bean cuttings; Table 2, 50 μM): 0 | effect on root elongation relative to control, in words (Arabidopsis seedlings): did not affect root elongation

CC(Oc1ccc(Cl)cc1Cl)C(=O)O (stereo not drawn) [Compound 2-DP, 2-(2,4-dichlorophenoxy)propionic acid, reference compound]
effect on AR formation in mung bean cuttings, in words (mung bean cuttings): positively correlated to dose

Cc1cc(Cl)ccc1OCC(=O)NCCO [Compound 2a]
rooting of mung bean cuttings (number of roots per cutting) (mung bean cuttings; [4]): 34.7 | rooting of mung bean cuttings (number of roots per cutting) (mung bean cuttings; [3]): 72.1

COC(=O)CCNC(=O)COc1ccc(Cl)cc1C [Compound 2b]
rooting of mung bean cuttings (number of roots per cutting) (mung bean cuttings; [4]): 94.8 | rooting of mung bean cuttings (number of roots per cutting) (mung bean cuttings; [3]): 63.2

Cc1ccc(NC(=O)COc2ccc(Cl)cc2C)nc1 [Compound 2c]
rooting of mung bean cuttings (number of roots per cutting) (mung bean cuttings; [4]): 0 | rooting of mung bean cuttings (number of roots per cutting) (mung bean cuttings; [3]): 0

COC(=O)c1ccnc(NC(=O)COc2ccc(Cl)cc2C)c1 [Compound 2d]
rooting of mung bean cuttings (number of roots per cutting) (mung bean cuttings; [4]): 64.3 | rooting of mung bean cuttings (number of roots per cutting) (mung bean cuttings; [3]): 0

Cc1ccccc1NC(=O)COc1ccc(Cl)cc1C [Compound 2e]
rooting of mung bean cuttings (number of roots per cutting) (mung bean cuttings; [4]): 23.6 | rooting of mung bean cuttings (number of roots per cutting) (mung bean cuttings; [3]): 0

Cc1ccc(NC(=O)COc2ccc(Cl)cc2C)cc1 [Compound 2f]
rooting of mung bean cuttings (number of roots per cutting) (mung bean cuttings; [4]): 0 | rooting of mung bean cuttings (number of roots per cutting) (mung bean cuttings; [3]): 0

COC(=O)c1ccc(NC(=O)COc2ccc(Cl)cc2C)cc1 [Compound 2g]
rooting of mung bean cuttings (number of roots per cutting) (mung bean cuttings; [4]): 0 | rooting of mung bean cuttings (number of roots per cutting) (mung bean cuttings; [3]): 0

COC(=O)COc1ccc(Cl)cc1C [Compound 2h, MCPA-methanol]
roots per cutting of green avocado branches compared with etiolated branches treated with IBA, in words [2]: considerably more roots per cutting | rooting success rate of green avocado branches, in words [2]: considerably enhanced the rooting success rate

CC(Oc1ccc(Cl)cc1Cl)C(=O)NCCO (stereo not drawn) [Compound 3a]
rooting of mung bean cuttings (number of roots per cutting) (mung bean cuttings; [4]): 26.4 | rooting of mung bean cuttings (number of roots per cutting) (mung bean cuttings; [3]): 24.1

COC(=O)c1ccnc(NC(=O)C(C)Oc2ccc(Cl)cc2Cl)c1 (stereo not drawn) [Compound 3d]
rooting of mung bean cuttings (number of roots per cutting) (mung bean cuttings; [4]): 41.6 | rooting of mung bean cuttings (number of roots per cutting) (mung bean cuttings; [3]): 85.8

Cc1ccccc1NC(=O)C(C)Oc1ccc(Cl)cc1Cl (stereo not drawn) [Compound 3e]
rooting of mung bean cuttings (number of roots per cutting) (mung bean cuttings; [4]): 37.3 | rooting of mung bean cuttings (number of roots per cutting) (mung bean cuttings; [3]): 41.7

COC(=O)c1ccc(NC(=O)C(C)Oc2ccc(Cl)cc2Cl)cc1 (stereo not drawn) [Compound 3g, 2-DP-methyl-4-aminobenzoate]
rooting of mung bean cuttings (number of roots per cutting) (mung bean cuttings; [4]): 46.2 | rooting of mung bean cuttings (number of roots per cutting) (mung bean cuttings; [3]): 46.4 | roots per cutting of green avocado branches compared with etiolated branches treated with IBA, in words [2]: considerably more roots per cutting | rooting success rate of green avocado branches, in words [2]: considerably enhanced the rooting success rate

COC(=O)CCNC(=O)Cc1cccc2ccccc12 [Compound 4b, NAA-β-alanine methyl ester]
roots per cutting of green avocado branches compared with etiolated branches treated with IBA, in words [2]: considerably more roots per cutting | rooting success rate of green avocado branches, in words [2]: considerably enhanced the rooting success rate
